Results on one compound are retold here after patent US20260285856A1, “A 1,5-DIHYDRO-4H-PYRROLO[3,2-C] PYRIDIN-4-ONE FOR USE IN THE TREATMENT OF CANCER” (ANTARES THERAPEUTICS, INC., priority 2023, published 2026).

Common to all, as to type: cell-based
One experiment deals with T1, EGFR WT (Homo sapiens, UniProt P00533).
T1 construct: expressed in transfected cells; host or cells: Ba/F3 (murine pro-B cells), retroviral transduction; maintained with supplemental EGF
As to the kind of experiment: Ba/F3 cell viability (CellTiter-Glo), EGFR WT. Particulars: Ba/F3 cells expressing EGFR WT, supplemental EGF, 72 hours, read-out: BaF3 WT IC50. From the text: (§1) Cell lines are generated by transducing Ba/F3 cells with retroviruses containing vectors with EGFR WT, EGFR exon 20 NPG Ins D770_N771, EGFR exon 20 ASV Ins V769_D770, EGFR exon 20 SVD Ins D770_N771, or EGFR exon 20 FQEA Ins A763_V764 genes and a puromycin selection marker. Transduced cells are selected with puromycin for 7 days and are then be transferred into culture media without Interleukin 3 (IL3). EGFR WT cells are maintained with supplemental EGF. Surviving cells are confirmed to express EGFR by Western blot and maintained as a pool. The IC50 data are included in Table 6.
(§2) • 1.1 Cells are harvested from flask into cell culture medium and the cell number counted. • 1.2 Cells are diluted with culture medium to the desired density and […] of cell suspension is added into each well of 384-well cell culture plate and the seeding density is 600 cells/well.
(§3) • 2.1 Test compounds are dissolved to 10 mM in a DMSO stock solution. […]
(§4) • 3.1 Plates are removed from incubators and equilibrated at room temperature for 15 minutes. • 3.2 Thaw the CellTiter Glo reagents and allow to equilibrate to room temperature before the experiment. • 3.3 Add 40 μL of CellTiter-Glo reagent into each well (at 1:1 to culture medium). Then place the plates at room temperature for 30 min followed by reading on EnVision.
(§5) • 4.1 Inhibition activity is calculated following the formula below: […]
A general note: In ATP-based viability assays light output follows the ATP content of the culture.

The target of experiment [1] is T2, EGFR exon 20 SVD Ins D770_N771 (Homo sapiens, UniProt P00533, INS770SVD).
T2 construct: expressed in transfected cells; host or cells: Ba/F3 (murine pro-B cells), retroviral transduction, puromycin selection, IL3 withdrawal
T2 sequence (P00533 with tags, fused parts or gaps INS770SVD): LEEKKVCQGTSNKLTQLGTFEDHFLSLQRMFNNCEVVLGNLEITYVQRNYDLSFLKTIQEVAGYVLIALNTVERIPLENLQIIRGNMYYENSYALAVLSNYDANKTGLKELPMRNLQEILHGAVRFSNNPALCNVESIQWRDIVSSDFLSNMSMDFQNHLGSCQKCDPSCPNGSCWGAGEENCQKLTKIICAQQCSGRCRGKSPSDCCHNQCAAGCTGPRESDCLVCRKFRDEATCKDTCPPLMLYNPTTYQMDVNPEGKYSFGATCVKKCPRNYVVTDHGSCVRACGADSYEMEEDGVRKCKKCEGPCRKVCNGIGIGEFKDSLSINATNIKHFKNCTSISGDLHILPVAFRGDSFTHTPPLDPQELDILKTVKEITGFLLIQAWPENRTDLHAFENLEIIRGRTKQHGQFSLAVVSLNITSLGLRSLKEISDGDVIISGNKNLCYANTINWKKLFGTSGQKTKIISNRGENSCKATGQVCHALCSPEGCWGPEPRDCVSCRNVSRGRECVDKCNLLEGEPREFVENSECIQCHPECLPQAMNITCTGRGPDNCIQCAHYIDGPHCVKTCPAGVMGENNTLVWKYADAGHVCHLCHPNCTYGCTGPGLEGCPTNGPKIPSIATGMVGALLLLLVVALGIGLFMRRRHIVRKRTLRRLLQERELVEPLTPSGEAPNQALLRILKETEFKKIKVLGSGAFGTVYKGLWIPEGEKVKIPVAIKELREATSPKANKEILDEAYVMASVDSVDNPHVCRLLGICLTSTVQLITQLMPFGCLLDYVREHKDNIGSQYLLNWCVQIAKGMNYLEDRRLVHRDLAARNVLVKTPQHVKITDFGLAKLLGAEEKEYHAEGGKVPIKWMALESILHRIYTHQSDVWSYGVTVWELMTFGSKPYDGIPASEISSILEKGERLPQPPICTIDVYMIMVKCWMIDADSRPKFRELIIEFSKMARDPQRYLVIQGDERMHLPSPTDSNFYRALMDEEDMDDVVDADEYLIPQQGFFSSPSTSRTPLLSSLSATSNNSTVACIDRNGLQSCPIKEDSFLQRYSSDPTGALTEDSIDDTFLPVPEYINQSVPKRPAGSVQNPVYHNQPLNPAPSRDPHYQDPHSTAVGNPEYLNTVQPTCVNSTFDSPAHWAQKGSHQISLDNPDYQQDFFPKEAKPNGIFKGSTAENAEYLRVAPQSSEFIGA
As to the kind of experiment: Ba/F3 cell viability (CellTiter-Glo), EGFR exon 20 SVD insertion. As to conditions: Ba/F3 cells expressing EGFR exon 20 SVD Ins D770_N771, 72 hours, read-out: BaF3 SVD IC50.
Source text: as §1, §2, §3, §4, §5

Experiment [2] concerns the target T3, EGFR exon 20 NPG Ins D770_N771 (Homo sapiens, UniProt P00533, INS770NPG).
T3 construct: expressed in transfected cells; host or cells: Ba/F3 (murine pro-B cells), retroviral transduction, puromycin selection, IL3 withdrawal
As to the kind of experiment: Ba/F3 cell viability (CellTiter-Glo), EGFR exon 20 NPG insertion. As to conditions: Ba/F3 cells expressing EGFR exon 20 NPG Ins D770_N771, 72 hours, read-out: BaF3 NPG IC50.
Source text: as §1, §2, §3, §4, §5

Experiment [3] addresses EGFR phosphorylation (pEGFR) in CUTO14 cells (Homo sapiens, UniProt P00533, INS769ASV). As to the kind of experiment: EGFR phosphorylation (pEGFR) AlphaLISA in CUTO14 cells. Particulars: 2 hours. From the text: EGFR mutant Ba/F3 cells were generated by transduction with retrovirus containing vectors expressing EGFR exon 20 NPG Ins D770_N771, EGFR exon 20 ASV Ins V769_D770, or EGFR exon 20 SVD Ins D770_N771 genes along with a puromycin selection marker. Transduced cells are selected with puromycin for 7 days and are then be transferred into culture media without Interleukin 3 (IL3). Surviving cells are confirmed to express EGFR by Western blot and maintained as a pool. CUTO14 cells were obtained from Dr. Robert C. Doebele at the University of Colorado. The IC50 data are included in Table 6.
• 1.1 Cells are harvested from flask into cell culture medium and the cell number counted. • 1.2 Cells are diluted with culture medium to the desired density and 40 μL of cell suspension is added into each well of 384-well cell culture plate and the seeding density is 50K cells/well (Ba/F3) or 12.5K cells/well (CUTO14).
• 2.1 Test compounds are dissolved to 10 mM in a DMSO stock solution. 45 μL of stock solution is transferred to a 384 polypropylene plate (pp-plate). […] Mix well on the shaker, seal and wrap in aluminum foil and incubate 1.5 hrs at room temperature in the dark • 3.5 Transfer 18.5 μL mixture to OptiPlate 384, and read using an Envision.

Experiment [4] deals with T4, EGFR exon 20 ASV Ins V769_D770 (Homo sapiens, UniProt P00533, INS769ASV).
T4 construct: expressed in transfected cells; host or cells: Ba/F3 (murine pro-B cells), retroviral transduction, puromycin selection, IL3 withdrawal
T4 sequence (P00533 with tags, fused parts or gaps INS769ASV): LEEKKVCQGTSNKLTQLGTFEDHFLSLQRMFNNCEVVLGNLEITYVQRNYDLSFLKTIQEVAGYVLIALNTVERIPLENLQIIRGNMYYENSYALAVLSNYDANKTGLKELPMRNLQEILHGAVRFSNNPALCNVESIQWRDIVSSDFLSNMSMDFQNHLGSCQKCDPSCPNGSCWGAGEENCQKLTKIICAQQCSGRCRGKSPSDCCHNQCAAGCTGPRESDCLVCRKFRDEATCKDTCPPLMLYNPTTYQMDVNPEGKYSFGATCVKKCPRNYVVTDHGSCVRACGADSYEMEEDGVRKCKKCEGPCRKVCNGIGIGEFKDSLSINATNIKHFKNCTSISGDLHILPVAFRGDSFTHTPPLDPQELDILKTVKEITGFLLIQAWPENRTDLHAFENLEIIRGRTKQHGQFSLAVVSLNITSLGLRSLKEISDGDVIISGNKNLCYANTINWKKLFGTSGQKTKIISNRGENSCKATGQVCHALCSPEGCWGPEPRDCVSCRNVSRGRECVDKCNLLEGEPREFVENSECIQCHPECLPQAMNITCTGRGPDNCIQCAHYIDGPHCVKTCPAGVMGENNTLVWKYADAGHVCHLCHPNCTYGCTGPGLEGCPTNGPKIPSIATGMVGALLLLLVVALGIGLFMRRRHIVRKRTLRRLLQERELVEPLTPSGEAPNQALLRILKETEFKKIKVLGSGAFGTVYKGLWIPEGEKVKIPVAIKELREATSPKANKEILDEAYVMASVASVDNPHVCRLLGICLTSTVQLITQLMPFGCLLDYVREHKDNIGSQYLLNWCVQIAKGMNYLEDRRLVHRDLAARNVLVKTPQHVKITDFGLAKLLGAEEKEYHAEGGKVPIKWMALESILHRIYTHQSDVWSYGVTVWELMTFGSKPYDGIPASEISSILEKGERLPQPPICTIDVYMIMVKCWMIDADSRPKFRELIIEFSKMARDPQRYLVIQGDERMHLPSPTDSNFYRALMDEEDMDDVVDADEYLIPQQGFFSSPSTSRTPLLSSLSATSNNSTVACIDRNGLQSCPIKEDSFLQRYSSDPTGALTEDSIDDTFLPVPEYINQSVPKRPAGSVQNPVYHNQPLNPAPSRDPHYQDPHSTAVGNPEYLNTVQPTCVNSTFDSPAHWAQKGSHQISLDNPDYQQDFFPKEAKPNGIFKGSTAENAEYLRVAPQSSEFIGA
As to the kind of experiment: Ba/F3 cell viability (CellTiter-Glo), EGFR exon 20 ASV insertion. As to conditions: Ba/F3 cells expressing EGFR exon 20 ASV Ins V769_D770, 72 hours, read-out: BaF3 ASV IC50.
Source text: as §1, §2, §3, §4, §5

Experiment [5] concerns EGFR mutant versus EGFR WT. As to the kind of experiment: EGFR mutant potency and selectivity against EGFR WT, compared with the enantiomer. As to conditions: relative to its enantiomer (compound 635 in WO 2022/066734).
Source text: as §1

pIC50: −log10 of the molar value.

T1 sequence (P00533 25-1210): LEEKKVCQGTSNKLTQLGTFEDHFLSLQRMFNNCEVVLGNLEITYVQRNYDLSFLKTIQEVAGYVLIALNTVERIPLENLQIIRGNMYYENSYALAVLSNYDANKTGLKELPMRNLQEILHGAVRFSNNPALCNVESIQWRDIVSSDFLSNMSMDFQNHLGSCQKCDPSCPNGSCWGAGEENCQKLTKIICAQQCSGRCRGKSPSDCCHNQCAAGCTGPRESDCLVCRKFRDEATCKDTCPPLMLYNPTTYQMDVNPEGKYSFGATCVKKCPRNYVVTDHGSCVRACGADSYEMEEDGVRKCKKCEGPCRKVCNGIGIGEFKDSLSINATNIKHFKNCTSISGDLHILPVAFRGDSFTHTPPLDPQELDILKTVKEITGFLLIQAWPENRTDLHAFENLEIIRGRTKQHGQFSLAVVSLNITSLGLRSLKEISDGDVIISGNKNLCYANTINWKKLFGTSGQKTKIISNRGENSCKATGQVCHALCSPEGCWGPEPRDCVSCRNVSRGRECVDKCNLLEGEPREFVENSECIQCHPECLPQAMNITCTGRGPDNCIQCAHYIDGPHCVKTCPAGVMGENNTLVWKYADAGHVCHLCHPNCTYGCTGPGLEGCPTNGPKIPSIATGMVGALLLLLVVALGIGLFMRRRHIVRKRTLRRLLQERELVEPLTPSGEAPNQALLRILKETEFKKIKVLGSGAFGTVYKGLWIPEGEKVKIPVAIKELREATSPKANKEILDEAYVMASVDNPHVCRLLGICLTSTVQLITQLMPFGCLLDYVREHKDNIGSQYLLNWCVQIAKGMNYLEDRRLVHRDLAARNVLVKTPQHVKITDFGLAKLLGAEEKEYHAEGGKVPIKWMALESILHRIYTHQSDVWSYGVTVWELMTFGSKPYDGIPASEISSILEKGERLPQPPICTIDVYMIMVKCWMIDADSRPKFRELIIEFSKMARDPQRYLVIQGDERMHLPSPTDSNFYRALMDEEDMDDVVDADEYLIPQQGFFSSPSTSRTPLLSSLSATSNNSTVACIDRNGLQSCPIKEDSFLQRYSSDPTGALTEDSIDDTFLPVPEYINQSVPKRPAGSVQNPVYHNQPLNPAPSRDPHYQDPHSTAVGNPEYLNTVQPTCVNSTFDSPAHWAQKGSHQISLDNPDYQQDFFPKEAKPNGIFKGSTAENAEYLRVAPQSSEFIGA
T3 sequence (P00533 with tags, fused parts or gaps INS770NPG): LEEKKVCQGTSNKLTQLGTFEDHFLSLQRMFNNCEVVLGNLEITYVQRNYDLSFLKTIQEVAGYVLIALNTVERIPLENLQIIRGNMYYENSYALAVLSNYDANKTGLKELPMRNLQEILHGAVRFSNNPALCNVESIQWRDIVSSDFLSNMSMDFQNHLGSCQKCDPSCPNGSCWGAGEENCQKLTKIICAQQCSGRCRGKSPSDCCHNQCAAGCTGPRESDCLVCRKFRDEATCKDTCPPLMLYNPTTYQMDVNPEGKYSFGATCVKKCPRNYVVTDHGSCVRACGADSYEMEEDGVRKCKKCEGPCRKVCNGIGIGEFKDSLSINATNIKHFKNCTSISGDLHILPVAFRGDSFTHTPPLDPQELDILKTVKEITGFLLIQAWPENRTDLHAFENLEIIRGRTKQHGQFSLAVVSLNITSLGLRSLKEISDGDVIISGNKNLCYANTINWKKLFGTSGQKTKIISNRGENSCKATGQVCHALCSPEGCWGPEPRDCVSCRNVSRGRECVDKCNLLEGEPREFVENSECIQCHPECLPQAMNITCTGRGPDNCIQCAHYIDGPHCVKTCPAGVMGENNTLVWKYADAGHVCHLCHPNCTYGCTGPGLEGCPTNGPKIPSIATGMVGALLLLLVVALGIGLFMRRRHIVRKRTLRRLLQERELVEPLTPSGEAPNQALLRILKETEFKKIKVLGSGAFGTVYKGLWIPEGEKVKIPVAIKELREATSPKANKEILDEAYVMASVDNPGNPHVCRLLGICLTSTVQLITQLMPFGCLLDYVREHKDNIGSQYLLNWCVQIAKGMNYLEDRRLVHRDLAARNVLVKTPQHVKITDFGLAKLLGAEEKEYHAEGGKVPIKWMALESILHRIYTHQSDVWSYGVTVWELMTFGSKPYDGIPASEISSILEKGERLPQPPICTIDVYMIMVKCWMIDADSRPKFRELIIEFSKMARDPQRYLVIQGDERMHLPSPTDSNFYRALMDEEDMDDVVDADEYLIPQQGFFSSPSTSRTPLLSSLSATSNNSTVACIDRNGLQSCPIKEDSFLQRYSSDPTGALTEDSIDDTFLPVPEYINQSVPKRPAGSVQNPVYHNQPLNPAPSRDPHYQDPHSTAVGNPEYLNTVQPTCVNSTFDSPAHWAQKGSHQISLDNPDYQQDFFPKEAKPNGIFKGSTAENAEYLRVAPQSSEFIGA

For `COc1c(Cl)cccc1Nc1c(-c2ccncc2C#C[C@@]2(C)CCCN2C(=O)/C=C/CN(C)C)[nH]c2cc[nH]c(=O)c12` [(I), 3-[(3-chloro-2-methoxyphenyl)amino]-2-(3-{2-[(2R)-1-[(2E)-4-(dimethylamino)but-2-enoyl]-2-methylpyrrolidin-2-yl]ethynyl}pyridin-4-yl)-1H,5H-pyrrolo[3,2-c]pyridin-4-one], the pIC50 (usually the negative decadic logarithm of the IC50, by convention in mol/L) was no more than 6.00 at EGFR WT; greater than 7.00 in experiment [1]; greater than 7.00 in experiment [2]; greater than 7.00 in experiment [3]; greater than 7.00 in experiment [4]. Further, the “EGFR mutant potency and selectivity against EGFR WT” value in experiment [5] is “greater than the potency and selectivity exhibited by its enantiomer”.
